Here are results for one compound from paper PMC11094307, “Marine-derived EGFR inhibitors: novel compounds targeting breast cancer growth and drug resistance” (Frontiers in Pharmacology, 2024).

The subject of one assay is BCL-2. In words: Western blotting of MCF-7 lysates, BCL-2. Format: cell-based, human. Conditions: for BCL-2 WB Normalized: control 0 µM 0.841817367. Here is the method:
MCF-7 cell lysates were prepared by rinsing the cells twice with PBS and then solubilizing them in lysis buffer (NP40 supplemented with protease and phosphatase inhibitor cocktails) on ice. The solubilization process involved rotating the lysis buffer/cell mixture end over end for 10 min at 4°C. After centrifugation for 10 min at 4°C to remove insoluble material, the protein concentration of the solubilized protein was determined using a BCA assay. Subsequently, samples were diluted in SDS sample buffer. Equivalent amounts of protein were separated by SDS-PAGE, transferred to PVDF membranes, and probed with the indicated antibody. Prior to incubation with primary antibodies overnight at 4°C, the membranes were blocked with 5% skim milk-TBST. The antibodies and their sources were as follows: PARP1 (1:500, Santa Cruz Biotechnology), Cleaved Caspase-3 (1:1000, Cell Signaling Technology), BAX (1:500, Santa Cruz Biotechnology), BCL-2 (1:500, Santa Cruz Biotechnology), and GAPDH (1:500, Santa Cruz Biotechnology). Following incubation with horseradish peroxidase-conjugated goat anti-mouse or goat anti-rabbit secondary antibody (Santa Cruz Biotechnology), the detected proteins were visualized using the Pierce Enhanced Chemiluminescence (ECL) reagent and a UV Products imaging system. Band intensities were quantified using the National Institutes of Health ImageJ software.

The subject of a further assay is H1299 cells. Nature of the assay: MTT assay, H1299. The settings on record: H1299 (high EGFR-expressing), 10 μM. Format: cell-based, human. How it is done:
(§1) The cell lines MCF-7 and A431 were cultured in Dulbecco’s Modified Eagle’s Medium (DMEM, Gibco, USA), while HL-60, H1299, and A549 cells were maintained in RPMI-1640 medium (Gibco, USA). Both mediums were enriched with 10% fetal bovine serum and 1% penicillin/streptomycin. […] All cell cultures were incubated at 37°C in an atmosphere containing 5% CO2.
(§2) Cells in the exponential growth phase were seeded into 96-well plates and allowed to adhere overnight. Subsequently, they were treated in triplicate with various concentrations of the compounds (0, 1.56, 3.13, 6.25, 12.5, 25, 50, 100 µM), […]. After 24 h, 20 µL of Methyl-thiazolyldiphenyl-tetrazolium bromide (MTT, 5 mg/mL, Thermo Fisher Scientific) was added to each well and incubated for a minimum of 4 h. Following the incubation, the medium containing the compounds and MTT was removed from each well, and 200 µL of dimethyl sulfoxide (DMSO) was added. The plates were then shaken for 10 min at 37°C to dissolve the formazan crystals. The absorbance was measured using a microplate reader (BioTek Synergy 4) at a wavelength of 490 nm.
For orientation: Tetrazolium dyes change colour on reduction, which living cells bring about.

In assay [1] the test system is MCF-7 cells. Nature of the assay: Cell cycle analysis by flow cytometry (PI). The format is cell-based, human. The settings on record: 20 μM, 24 h. How it is done:
After 24 h of treatment with various concentrations of compounds, MCF-7 cells were harvested and washed twice with phosphate-buffered saline (PBS). For cell cycle analysis, the cells were initially fixed with 70% ethanol at 4°C overnight and subsequently washed with PBS. The fixed cells were then resuspended in 1× PBS containing 0.5% Triton X-100, 50 μg/mL propidium iodide (PI), and 50 μg/mL DNase-free RNase A, and incubated at 37°C for 30 min in darkness. Following incubation, cell cycle distribution was assessed using a BD FACSCanto™ flow cytometer.
(In general: A flow cytometer gives signals particle by particle.)

A further assay relates to HL-60 cells. Nature of the assay: MTT assay, HL-60. Format: cell-based, human. The settings on record: HL-60 (low EGFR-expressing), 10 μM. How it is done:
as §1, §2

The target of assay [2] is T1, EGFR extracellular ligand binding domain (Homo sapiens, UniProt P00533).
T1 construct: His; purchased Sinobiological, China
Nature of the assay: SPR binding (Biacore 8K). The source says:
(§3) The extracellular ligand-binding domain of EGFR, tagged with His, and the intracellular tyrosine kinase (TK) domain of EGFR, tagged with GST, were acquired from Sinobiological, China. Kinase assay systems for both wild-type EGFR and its mutants—T790M, L858R, and the dual L858R/T790M—were procured from Promega Corporation, USA. Cell lines including MCF-7, A549, A431, H1299, HL-60, and MCF-10A were obtained from the China Infrastructure Cell Line Resources.
(§4) The binding affinities of compounds towards EGFR extracellular ligand binding domain and EGFR intracellular kinase domain were assayed using the SPR-based Biacore 8K instrument (Cytiva). Considering the purchased EGFR was fused with GST tag, GST alone was also immobilized on the chip to do the binding measurement. All the proteins were respectively immobilized on a CM5 sensor chip by using standard amine-coupling at 25°C with running buffer HEPES-P (20 mM HEPES buffer, […], 0.05% surfactant P20, pH 7.4). A reference channel was only activated and blocked to eliminate compound unspecific binding to the surface of the chip. The immobilization level of EGFR extracellular ligand binding domain, EGFR intracellular kinase domain and GST were all about 10,000 RU. […] Extra wash with 50% DMSO was added to remove the last remaining sample in the pipeline.
In general terms: Surface plasmon resonance follows binding to a sensor surface in real time, without labels.

Assay [3] deals with EGFR intracellular kinase domain (Homo sapiens, UniProt P00533). In words: SPR binding (Biacore 8K). Further details: the intracellular tyrosine kinase (TK) domain of EGFR, tagged with GST; purchased Sinobiological, China. The settings on record: without ATP.
Text: as §3, §4

In assay [4] the test system is MCF-7 cells. In words: MTT assay, MCF-7 growth inhibition. Format: cell-based, human. Here is the method: Both mediums were enriched with 10% fetal bovine serum and 1% penicillin/streptomycin.
Cells in the exponential growth phase were seeded into 96-well plates and allowed to adhere overnight. […] After 24 h, 20 µL of Methyl-thiazolyldiphenyl-tetrazolium bromide (MTT, 5 mg/mL, Thermo Fisher Scientific) was added to each well and incubated for a minimum of 4 h. Following the incubation, the medium containing the compounds and MTT was removed from each well, and 200 µL of dimethyl sulfoxide (DMSO) was added.
All experiments were repeated at least three times, and the data are presented as mean ± standard deviation (SD). The statistical analyses were performed using Origin. EC50 or IC50 values were obtained by fitting the data to a four-parameter Hill model of the graph of log dose against percentage cell viability or inhibition from at least three sets of experiments. Difference between two groups were analyzed by Student’s t test (two-sided) and significance was set at p < 0.05. The specific details about statistical methods are introduced in respective figure legends.

EGFR intracellular kinase domain, sequence (P00533 712-979 limits assumed): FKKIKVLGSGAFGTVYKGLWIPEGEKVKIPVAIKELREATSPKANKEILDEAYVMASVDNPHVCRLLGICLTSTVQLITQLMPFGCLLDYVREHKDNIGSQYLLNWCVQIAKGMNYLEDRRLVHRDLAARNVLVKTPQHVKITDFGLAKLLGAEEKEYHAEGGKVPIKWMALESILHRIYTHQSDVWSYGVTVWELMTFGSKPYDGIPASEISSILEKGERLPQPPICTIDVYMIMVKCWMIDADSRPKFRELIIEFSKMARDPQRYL
T1 sequence (P00533 25-645 limits assumed): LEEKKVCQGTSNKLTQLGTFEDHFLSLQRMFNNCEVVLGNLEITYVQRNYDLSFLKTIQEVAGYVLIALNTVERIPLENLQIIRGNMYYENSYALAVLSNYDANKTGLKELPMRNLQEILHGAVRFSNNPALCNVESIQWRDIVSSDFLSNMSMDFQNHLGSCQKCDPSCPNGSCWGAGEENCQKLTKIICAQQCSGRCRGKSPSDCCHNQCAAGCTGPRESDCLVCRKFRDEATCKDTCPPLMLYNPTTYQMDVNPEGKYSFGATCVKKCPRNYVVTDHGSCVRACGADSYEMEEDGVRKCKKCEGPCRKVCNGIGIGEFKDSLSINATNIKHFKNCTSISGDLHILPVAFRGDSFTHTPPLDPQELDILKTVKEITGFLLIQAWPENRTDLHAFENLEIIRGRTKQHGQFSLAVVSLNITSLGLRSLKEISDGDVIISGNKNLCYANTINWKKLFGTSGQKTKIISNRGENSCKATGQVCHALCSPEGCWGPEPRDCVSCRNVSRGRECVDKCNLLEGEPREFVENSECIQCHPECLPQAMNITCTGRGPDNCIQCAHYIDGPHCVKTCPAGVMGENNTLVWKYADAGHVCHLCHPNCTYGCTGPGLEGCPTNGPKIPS

On to `COC(=O)C/C(C)=C/C(=O)O[C@@H]1C[C@@H](C)[C@H]2[C@@H](C=C[C@H](CC(C)C)[C@]2(C)C(=O)/C=C\O)[C@@H]1O` [Tandyukisin], for which the “BCL-2 WB Gray Value” in the assay with BCL-2 (5 µM) is reported as 41097.258; with BCL-2 (10 µM), 21588.48; in the assay on BCL-2 (20 µM), 7215.723. Further, the “BCL-2 WB Normalized” value was determined as 0.9373 in the assay on BCL-2 (5 µM), 0.4959 in the assay on BCL-2 (10 µM) and 0.211 in the assay on BCL-2 (20 µM). The cell lethality percentage in the assay on H1299 cells was 60.3% ± 3.9%; in the assay on HL-60 cells, 11.1% ± 1.2%; with MCF-7 cells [4] (MCF-7, 10 μM) it was 75.7% ± 2.3%. For the same compound, the “percentage of cells in G0/G1 phase” value in the assay with MCF-7 cells [1] is reported as 85.67%. Further, the Kd (commonly the free concentration of one partner at which half of the binding sites on the other are occupied at equilibrium, for simple one-to-one binding) in assay [2] stood at 101 µM; in assay [3], 5.57 µM. In addition, the kon in assay [2] (Figure 4C-D, read-out: ka, EGFR ligand binding domain) came out at 109 M⁻¹ s⁻¹; in assay [3] (Figure 4A-B, read-out: ka, EGFR kinase domain), 3050 M⁻¹ s⁻¹. In the assay with MCF-7 cells [4] (Homo sapiens, MCF7, MTT, 24 h, read-out: EC50, MCF-7 cell viability), the 50% effective concentration (EC50) (commonly the concentration at which the effect is half-maximal) came out at 3 ± 1 µM.
